According to US20200323954A1, “METHODS AND COMPOSITIONS FOR REDUCING GUT ISCHEMIA/REPERFUSION-INDUCED INJURY” (PanTheryx, Inc., priority 2019, published 2020):
“Also recorded” adds a separate entry of the source. Marks after values point to notes of the source that are not given here.

Columns and labels:
[1] = tested on: polarised Caco-2 monolayers; assay: Transepithelial electrical resistance (TEER) after H/R; assay type: cell-based, human
Experimental: (§1) Hypoxia (Ischemia)/Normoxia (Reperfusion) (H/R) protocols for in vitro studies: For all experiments AGS, Caco-2 and RIE1 cells were set up in plates as described in specific methods. Cells were used at 70-80% confluence for cell injury/death assessment and as confluent monolayers for permeability studies. To induce “ischemia”, cells were placed in a hypoxic incubator (2% 02) for specified time and to mimic reperfusion, cells were placed back in a normoxic (21% 02) incubator for specified time. All treatments were duplicated in a second set of identical plates under normoxic conditions throughout the same test period as controls. To determine optimum conditions for the in vitro studies, pilot studies were performed.
(§2) The effect of […] PSTI pre-treatment on transepithelial permeability induced by 1 hour of hypoxia followed by 24 hours of normoxia was examined using Caco-2, human polarizing colonic adenocarcinoma cells utilizing two different previously published methods according to Davison et al., 2016, Am J Nutr 2016; 104:526-536. One method determined change in transepithelial electrical resistance (TEER) and the other method analyzed the passage of horseradish peroxidase (HRP) across the epithelial layer. HRP (type II) is a non-digestible macromolecular protein (MW=44 kD) and has previously been used as a tracer in evaluation of epithelial permeability. Each monolayer had TEER and HRP permeability assessed at baseline, at the end of 1 h incubation in an hypoxic (ischemic) chamber and at the end of a 24 h reoxygenation (reperfusion) period. Measurements were taken in triplicate from 4 wells per treatment. Results are expressed as mean+/−SEM.

[2] = tested on: polarised Caco-2 monolayers; assay: Permeation of horseradish peroxidase (HRP) through the monolayer after H/R; assay type: cell-based, human
Experimental: as §1, §2

[3] = tested on: Caco-2 cells; assay: Apoptotic and protective pathways after H/R in Caco-2 cells; assay type: cell-based, human
Experimental: as §1
Cleared cell lysates from I/R experiments in Caco-2 cells were assessed for levels of the apoptotic molecules Caspase 3 (FIG. 5A), Caspase 9 (FIG. 5I), Baxα (FIG. 5B) and Bcl2 (FIG. 5C). HIF1α (FIG. 5Δ), VEGF (FIG. 5E), hSP70 (FIG. 5F), ICAM1 (FIG. 5G) and the tight junction molecules ZO1 (FIG. 5H) and Claudin1 (FIG. 5J) levels were also analysed.

[4] = tested on: AGS cells; assay: Apoptotic and protective pathways after H/R in AGS cells; assay type: cell-based, human; settings: Hyp 1 h/Rep 24 h + PSTI, mean +/− SEM
Experimental: as §1

[5] = tested on: DSS-induced colitis; settings: rats, PSTI administration; cited from earlier work
[6] = tested on: human colonic carcinoma HT29 cells; settings: HT29 cells in vitro; cited from earlier work
[7] = tested on: lipopolysaccharide-stimulated dendritic cells; settings: lipopolysaccharide-stimulated dendritic cells in vitro; cited from earlier work
[8] = tested on: NSAID-induced apoptosis; settings: cited from earlier work
[9] = tested on: bladder cancer; settings: cited from earlier work
[10] = tested on: lung tissue; assay: Gut I/R model, lung tissue
[11] = tested on: renal tissue; assay: Gut I/R model, renal tissue; settings: kidney, I/R + PSTI 20 μg/kg ip, mean ± SEM
[12] = tested on: 90% small intestine (SI) tissue (non-clamped segment of bowel); assay: Gut I/R model, non-clamped 90% SI site; settings: 90% SI non-clamped, mean ± SEM
[13] = tested on: 50% SI (clamped region); assay: Gut ischemia-reperfusion (I/R) model, clamped 50% SI site
[14] = PSTI added to the medium prior to I/R
[15] = Caco-2, 1 h or 4 h hypoxia + 24 h normoxia, PSTI 1 h before, vs H/R without PSTI
[16] = normoxic, any of the cell lines (data not shown)
[17] = IR + PSTI 20 μg/kg ip, mean ± SEM
[18] = PSTI 20 μg/kg ip, vs I/R without PSTI
[19] = 50% SI clamped, PSTI 20 μg/kg ip, vs I/R without PSTI

For “pancreatic secretory trypsin inhibitor (DSLGREAKCYNELNGCTKIYDPVCGTDGNTYPNECVLCFENRKRQTSILIQKSGPC; listed as Homo sapiens) [PSTI]”, the “reduction of the fall in TEER caused by H/R” value ([1]; Caco-2, 1 h hypoxia + 24 h normoxia, PSTI pre-treatment) was “about 50%”, the “TEER under normoxic conditions” value ([1]; Caco-2, normoxia) was “no effect on TEER or HRP permeation; also recorded: no effect on transepithelial resistance (TEER)” and the “H/R-induced change in TEER permeability, medium alone vs PSTI” value [1, 14] was “significantly greater increases in permeability compared to those that had PSTI added”. The “truncation of the damaging effect of hypoxia-normoxia on epithelial integrity” value ([1]; TEER and HRP permeation, polarized monolayers) was “about 65%”, the “truncation of the increase in HRP permeability” value ([2]; Caco-2, end of the 1 h hypoxic period) was “about 54%” and the “truncation of the increase in HRP permeability” value ([2]; Caco-2, final H/R time point (1 h hypoxia + 24 h)) was 37%. The “truncation of the 300% increase in transepithelial permeability (horse radish peroxidase translocation)” value ([2]; Caco-2 monolayers, hypoxia/reperfusion 1 h+24 h, p<0.01) was 50%, the “I/R-induced change in HRP permeability, medium alone vs PSTI” value [2, 14] was “significantly greater increases in permeability compared to those that had PSTI added” and the “HRP permeation under normoxic conditions” value ([2]; normoxia) was “no effect on TEER or HRP permeation”. For the same substance, the “further increase in HIF1α above the 42% increase induced by H/R” value ([3]; 4 h hypoxia+24 h reoxygenation, cells pre-treated with PSTI (FIG. 5D)) was 11%, the “further increase in VEGF above the 34% increase caused by H/R” value ([3]; 4 h hypoxia+24 h reoxygenation, co-presence of PSTI (FIG. 5E)) was 15% and the “increase in hSP70 after H/R with PSTI” value ([3]; 4 h hypoxia+24 h reoxygenation, H/R alone about 63% (FIG. 5F)) was “about 80%”. The Baxα activity [3, 15] was “significantly truncated; also recorded: significantly decreased Baxα activity”, the Bcl2 activity [3, 15] was “this effect was truncated; also recorded: significantly attenuated reduction in Bcl2 activity” and the “Caspase 3 activity” value [3, 15] was “significantly decreased Caspase 3 activity”. The “Caspase 9 activity” value [3, 15] was “significantly decreased Caspase 9 activity”, the Claudin1 activity [3, 15] was “significantly attenuated reduction in Claudin1 activity” and the HIF1α activity [3, 15] was “significantly increased HIF1α activity”. For the same substance, the ICAM1 activity [3, 15] was “not influenced by the presence of PSTI; also recorded: did not significantly affect ICAM1 activity”, the VEGF activity [3, 15] was “significantly increased VEGF activity” and the ZO1 activity [3, 15] was “significantly attenuated reduction in ZO1 activity”. The hSP70 activity [3, 15] was “significantly increased hSP70 activity”, the “truncation of the H/R-induced fall in ZO1 and Claudin1” value ([3]; after 4 hours of hypoxia (FIG. 5H, 5J)) was “about 50%” and the “Caspase 3, 9, Baxα or Bcl2 under normoxic conditions” value [3, 16] was “no effect on Caspase 3, 9, Baxα or Bcl2”. The “HIF1α or VEGF under normoxic conditions” value [3, 16] was “no effect on HIF1α or VEGF”, the “ICAM1 levels under normoxic conditions” value ([3]; normoxic, any of the cell lines tested (data not shown)) was “no effect on ICAM1 levels” and the Baxα [4] was 110.9 +/− 2.79 * $ % normoxic. The Bcl2 [4] was 49.3 +/− 1.91 ** $$ % normoxic, the “Caspase 3” value [4] was 228.2 +/− 18.72 * $ % normoxic and the “Caspase 9” value [4] was 119.8 +/− 13.25 * $ % normoxic. The Claudin 1 [4] was 77.3 +/− 3.63 ** $$ % normoxic, the HIF1α [4] was 145.2 +/− 0.66 ** $$ % normoxic and the ICAM1 [4] was 113.6 +/− 0.12 **^ % normoxic. The VEGF [4] was 125.82 +/− 2.0 ** $$ % normoxic, the ZO1 [4] was 82.1 +/− 0.98 ** $ % normoxic and the hSP70 [4] was 132.9 +/− 1.05 ** $ % normoxic. For the same substance, the DSS-induced colitis [5] was “reduces NSAID-induced gastric injury and DSS-induced colitis”, the cell migration [6] was “stimulate cell migration” and the proliferation [6] was “not proliferation”. The “cytokine release of TNFα and IL-12” value [7] was “reduced cytokine release of TNFα and IL-12”, the NSAID-induced apoptosis [8] was “reduces NSAID-induced apoptosis” and the migration and invasion [9] was “causes autocrine-mediated migration and invasion in bladder cancer”. The “phosphorylation of signalling proteins” value [9] was “phosphorylates the EGF receptor, Akt2 and Akt3, and ERK1 and ERK2”, the “Caspase 3” value ([10]; IR + PSTI 20 μg/kg ip 1 h before clamping, mean ± SEM) was 0.092 ± 0.022 Change in absorbance and the Baxα [10, 17] was 3.74 ± 0.21 pg/μg total protein. The Bcl2 [10, 17] was 45.66 ± 3.79 pg/μg total protein, the “Caspase 9” value [10, 17] was 0.063 ± 0.004 Change in absorbance and the “Claudin 1” value [10, 17] was 9.63 ± 0.40 pg/μg total protein. For the same substance, the ZO1 [10, 17] was 8.15 ± 0.80 pg/μg total protein, the “histological damage of lung” value ([10]; PSTI 20 μg/kg ip 1 h before clamping, vs I/R without PSTI) was “markedly truncated these effects; also recorded: protective effects; also recorded: markedly truncated the adverse effects; also recorded: significantly reduced histological scoring of lung damage” and the MDA levels [10, 18] was “this increase was truncated; also recorded: significantly reduced MDA levels”. The “MPO levels (neutrophil infiltration)” value [10, 18] was “reduced neutrophil infiltration of the lungs; also recorded: significantly reducing these changes; also recorded: significantly reduced MPO levels”, the Baxα [11] was 5.61 ± 0.63 pg/μg total protein and the Bcl2 [11] was 66.37 ± 4.89 pg/μg total protein. The “Caspase 3 activity” value [11] was 0.069 ± 0.019 Change in absorbance, the “Caspase 9 activity” value [11] was 0.053 ± 0.010 Change in absorbance and the “Claudin 1” value [11] was 0.154 ± 0.016 pg/μg total protein. The MDA [11] was 0.47 ± 0.047 nmol/μg of protein, the ZO1 [11] was 0.151 ± 0.008 pg/μg total protein and the hSP70 [11] was 36.6 ± 2.96 pg/μg total protein. For the same substance, the “Histological score (0-5)” value ([12]; I/R + PSTI 20 μg/kg ip 1 h before clamping, 30 min ischemia/3 h reperfusion) was 0.142 ± 0.142, the Bcl2 ([12]; I/R + PSTI 20 μg/kg ip) was 5.55 ± 1.00 pg/μg total protein and the “Caspase 3” value ([12]; I/R + PSTI 20 μg/kg ip) was 0.021 ± 0.007 Change in absorbance. For the same substance, the “Caspase 9” value ([12]; I/R + PSTI 20 μg/kg ip) was 0.014 ± 0.00052 Change in absorbance, the “Claudin 1” value ([12]; I/R + PSTI 20 μg/kg ip) was 0.152 ± 0.014 pg/μg total protein and the ZO1 ([12]; I/R + PSTI 20 μg/kg ip) was 0.17 ± 0.008 pg/μg total protein. The ICAM1 levels ([13]; 50% SI clamped (gut), PSTI 20 μg/kg ip, vs I/R without PSTI) was “did not affect increased ICAM1; also recorded: no effect on these results; also recorded: did not affect ICAM1 levels”, the “histological damage of small intestine” value ([13]; 50% SI clamped, PSTI 20 μg/kg ip 1 h before clamping, vs I/R without PSTI) was “much less extensive damage; also recorded: protective effects; also recorded: significantly reduced histological scoring” and the Baxα levels [13, 19] was “truncated the increase; also recorded: significantly decreased the damaging pro-apoptotic Baxα activity”. For the same substance, the Bcl2 levels [13, 19] was “maintained levels; also recorded: significantly increased the protective anti-apoptotic Bcl2 activity”, the “Caspase 3 levels” value [13, 19] was “virtually eliminated; also recorded: significantly decreased Caspase 3 activity” and the “Caspase 9 levels” value [13, 19] was “virtually eliminated; also recorded: significantly decreased Caspase 9 activity”. For the same substance, the Claudin1 levels [13, 19] was “virtually completely prevented; also recorded: significantly increased the protective Claudin1”, the HIF1α levels [13, 19] was “further increasing HIF1α and VEGF; also recorded: significantly increased the protective HIF1α” and the MDA levels [13, 19] was “this increase was truncated; also recorded: significantly reduced MDA levels”. The MPO levels [13, 19] was “significantly reducing these changes; also recorded: significantly reduced MPO levels”, the VEGF levels [13, 19] was “further increasing HIF1α and VEGF; also recorded: significantly increased the protective VEGF” and the ZO1 levels [13, 19] was “virtually completely prevented; also recorded: significantly increased the protective ZO1”. For the same substance, the hSP70 levels [13, 19] was “Additional increases in hSP70 expression; also recorded: significantly increased the protective hSP70”, the “reduction of all injury markers” value ([13]; gut, lung, kidney (necrosis, MDA, MPO), PSTI 20 μg/kg, p<0.01) was 50-80% and the “histological and biochemical markers of injury in gut, lung and kidney” value ([13]; pre-treatment with PSTI) was “significantly reduced histological and biochemical markers of injury”.
